One assay has as its target T1, SDCBP PDZ 1 (Homo sapiens, UniProt O00560).
T1 construct: made in house; host or cells: E. coli
T1 sequence (O00560 114-193 limits assumed): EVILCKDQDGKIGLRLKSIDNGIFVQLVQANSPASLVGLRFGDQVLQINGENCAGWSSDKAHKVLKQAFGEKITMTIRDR
In words: Holdup assay, SDCBP-1. In kind it is binding. Conditions: PDZ domain SDCBP-1. As to the method: (§1) The holdup assay was performed on a Tecan freedom Evo200 robot with 384-well plates in singlicate for the three 11-mer PTEN variants and the 13-mer PTEN peptide as described in [31, 32]. Briefly, prior to interaction assay, 2.5 μL of streptavidin resin was saturated in each well with 20 μL of biotinylated PBM peptides (42 μM) and then washed twice with an excess of free biotin, while the reference resin was incubated only with biotin. Right before the holdup experiment, the PDZ library was spiked with an internal standard of lysozyme. Then, the biotin- or PBM-saturated resin was incubated, each in a distinct well of a 384-well plate, with complete cell lysates diluted so that the concentration of the tag-PDZ present in the crude extract is adjusted at 4 μM. After a sufficient time to reach complex equilibrium (15 min.), a fast and mild filtration step is performed and the tag-PDZ concentrations were measured by capillary electrophoresis instrument (LabChip GXII, PerkinElmer, Massachusets, USA). Standard markers were used to convert migration time into molecular weight on the LabChip software and inappropriate molecular weight markers were corrected or excluded.
(§2) For filtered data, the BI was extracted with the following equation (Eq 1) that estimates the depleted fraction after superimposition of the sample and reference electropherograms: BI=Iref−Ilig/Iref (1) where Iref and Ilig are the intensities of the tag-PDZ peaks measured, for each PDZ domain/PBM peptide interaction pair, in the biotin reference and the PBM electropherograms, respectively.
(§3) BIs were transformed into dissociation constants (KD) using the following formula: KD=([PDZtot]−BI·[PDZtot])·([PBMtot]−BI·[PDZtot])/BI·[PDZtot] (2) where [PDZtot] and [PBMtot] correspond to the total concentrations of the PDZ domain (usually around 4 μM) and the PBM peptide used during the assay. Since the PBMtot concentration in the resin during the holdup assay parameter may differ from one peptide to another and remains unknown, it is impossible to directly convert BI values into KD constants. We systematically determined the KD constants for a subset of PDZ/PBM pairs by competitive FP. […] For each PBM, the average peptide concentration was calculated after outlier rejection based on the absolute distances from the median as compared to three times the standard deviation (3σ rule), with never more than 2 values rejected.

The test system of a further assay is DLG1-3. Kind of assay: Holdup assay, DLG1-3. In kind it is binding, human.
In another assay the target is T2, MAGI3-5 (Homo sapiens, UniProt Q5TCQ9).
T2 sequence (Q5TCQ9 1-1481): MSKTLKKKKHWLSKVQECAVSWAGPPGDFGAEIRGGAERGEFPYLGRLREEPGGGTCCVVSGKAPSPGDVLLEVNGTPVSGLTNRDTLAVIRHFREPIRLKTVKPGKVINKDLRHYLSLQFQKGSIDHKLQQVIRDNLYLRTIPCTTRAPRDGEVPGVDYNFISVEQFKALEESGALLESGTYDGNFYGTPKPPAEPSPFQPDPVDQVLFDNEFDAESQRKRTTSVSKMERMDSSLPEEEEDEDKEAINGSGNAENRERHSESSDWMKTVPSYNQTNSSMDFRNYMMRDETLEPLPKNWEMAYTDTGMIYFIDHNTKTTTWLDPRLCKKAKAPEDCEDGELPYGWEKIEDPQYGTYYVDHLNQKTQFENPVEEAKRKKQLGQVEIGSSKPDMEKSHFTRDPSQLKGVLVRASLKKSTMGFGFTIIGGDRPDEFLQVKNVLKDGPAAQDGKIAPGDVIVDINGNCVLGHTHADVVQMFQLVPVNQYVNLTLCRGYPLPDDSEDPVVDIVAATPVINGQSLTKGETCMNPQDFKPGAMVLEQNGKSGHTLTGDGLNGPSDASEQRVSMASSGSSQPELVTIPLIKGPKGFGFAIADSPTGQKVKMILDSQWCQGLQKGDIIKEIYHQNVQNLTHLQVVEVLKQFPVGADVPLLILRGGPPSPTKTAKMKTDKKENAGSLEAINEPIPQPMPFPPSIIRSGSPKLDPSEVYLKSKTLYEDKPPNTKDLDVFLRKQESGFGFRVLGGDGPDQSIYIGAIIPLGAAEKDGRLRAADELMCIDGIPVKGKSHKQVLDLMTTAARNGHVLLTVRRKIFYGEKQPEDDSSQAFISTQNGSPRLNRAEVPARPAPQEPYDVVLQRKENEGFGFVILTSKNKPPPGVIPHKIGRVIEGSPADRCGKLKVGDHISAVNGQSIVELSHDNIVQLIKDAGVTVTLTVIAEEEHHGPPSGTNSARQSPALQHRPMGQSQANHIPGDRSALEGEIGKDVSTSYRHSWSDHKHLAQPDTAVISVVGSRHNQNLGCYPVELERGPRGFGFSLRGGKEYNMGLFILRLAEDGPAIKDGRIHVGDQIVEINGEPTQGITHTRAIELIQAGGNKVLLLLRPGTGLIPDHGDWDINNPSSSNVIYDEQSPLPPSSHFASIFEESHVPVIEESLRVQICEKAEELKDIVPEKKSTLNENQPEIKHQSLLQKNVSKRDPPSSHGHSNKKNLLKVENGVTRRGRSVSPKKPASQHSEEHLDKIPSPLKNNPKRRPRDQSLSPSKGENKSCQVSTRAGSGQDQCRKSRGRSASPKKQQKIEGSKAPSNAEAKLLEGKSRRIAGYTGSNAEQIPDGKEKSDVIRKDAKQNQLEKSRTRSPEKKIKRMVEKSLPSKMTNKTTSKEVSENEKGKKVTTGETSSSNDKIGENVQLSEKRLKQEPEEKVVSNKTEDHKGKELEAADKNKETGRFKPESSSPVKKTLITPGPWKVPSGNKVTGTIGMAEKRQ
In words: Holdup assay, MAGI3-5. In kind it is binding.

The target of the next assay is T3, NHERF1 PDZ 1 (Homo sapiens, UniProt O14745).
T3 construct: NHERF1-1 as the first PDZ domain of the NHERF1 protein; made in house; host or cells: E. coli
T3 sequence (O14745 14-94 limits assumed): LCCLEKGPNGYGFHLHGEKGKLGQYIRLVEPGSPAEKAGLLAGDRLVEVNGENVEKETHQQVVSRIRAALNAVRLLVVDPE
In words: Holdup assay, NHERF1-1. Particulars: for BI: PDZ domain NHERF1-1. It is filed as binding. As to the method:
as §1, §2, §3

The target in another assay is T4, HTRA1-1 (Homo sapiens, UniProt Q92743).
T4 construct: His-MBP or His-TRX (N); made in house; host or cells: E. coli
T4 sequence (Q92743 365-467 limits assumed): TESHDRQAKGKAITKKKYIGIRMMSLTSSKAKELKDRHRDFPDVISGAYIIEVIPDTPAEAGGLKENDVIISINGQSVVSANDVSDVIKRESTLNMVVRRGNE
Kind of assay: Holdup assay, HTRA1-1. It is filed as binding. As to the method:
as §1, §2

The target of a further assay is MAGI2-6 (Homo sapiens, UniProt Q86UL8). Kind of assay: Holdup assay, MAGI2-6. In kind it is binding.
MAGI2-6, sequence (Q86UL8 1147-1229): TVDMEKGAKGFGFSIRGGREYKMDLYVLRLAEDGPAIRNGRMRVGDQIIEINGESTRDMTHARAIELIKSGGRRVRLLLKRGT
In the next assay the test system is LNX1-3. Kind of assay: Holdup assay, LNX1-3. It is filed as binding, human.

*1 amine or outer side, *2 acyl side, *3 side chain or, on linkers, in order; H or OH if unused. Where a SMILES comes first, the peptide text is derived from it. The star is where a group is joined. X1 = O=C(CCCC[C@@H]1SC[C@@H]2NC(=O)N[C@@H]21)NCCCOCCOCCOCCCN*; Suc = O=C(CCC(=O)[*:2])[*:1]

Regarding `CC[C@H](C)[C@H](NC(=O)[C@H](CCC(N)=O)NC(=O)[C@@H](NC(=O)[C@H](Cc1c[nH]cn1)NC(=O)[C@H](CCC(N)=O)NC(=O)[C@H](CC(=O)O)NC(=O)[C@H](CCC(=O)O)NC(=O)[C@H](CC(=O)O)NC(=O)CCC(=O)NCCCOCCOCCOCCCNC(=O)CCCC[C@@H]1SC[C@@H]2NC(=O)N[C@@H]21)[C@@H](C)O)C(=O)N[C@H](C(=O)N[C@@H](CCCNC(=N)N)C(=O)N[C@H](C(=O)O)C(C)C)[C@@H](C)O` [PTEN_KR] ({X1-Suc}-DEDQHTQITRV-OH), the BI on SDCBP PDZ 1 is reported as -0.006; in the assay with DLG1-3, 0.077; on MAGI3-5, 0.165; on NHERF1 PDZ 1 it was 0.862; on HTRA1-1 (HTRA1-1), 0.368; at MAGI2-6, 0.358. In the assay on DLG1-3, this compound had a LogKD of 3.655. For the same compound, the results for the Kd at NHERF1 PDZ 1, at HTRA1-1 and on MAGI2-6 were 3.45 µM, 40.4 µM and 42.3 µM, respectively.

For the compound `CC[C@H](C)[C@H](NC(=O)[C@H](CCC(N)=O)NC(=O)[C@@H](NC(=O)[C@H](Cc1c[nH]cn1)NC(=O)[C@H](CCC(N)=O)NC(=O)[C@H](CC(=O)O)NC(=O)[C@H](CCC(=O)O)NC(=O)[C@H](CC(=O)O)NC(=O)[C@H](Cc1ccccc1)NC(=O)[C@@H]1CCCN1C(=O)CCC(=O)NCCCOCCOCCOCCCNC(=O)CCCC[C@@H]1SC[C@@H]2NC(=O)N[C@@H]21)[C@@H](C)O)C(=O)N[C@H](C(=O)N[C@@H](CCCCN)C(=O)N[C@H](C(=O)O)C(C)C)[C@@H](C)O` [PTEN_13] ({X1-Suc}-PFDEDQHTQITKV-OH), the BI is given as 0.009 at SDCBP PDZ 1; 0.016 in the assay with LNX1-3; -0.033 in the assay with DLG1-3; […] on MAGI3-5; 0.235 at HTRA1-1 (HTRA1-1); 0.236 at MAGI2-6. In addition, the LogKD at MAGI3-5 was […]. Further, the figures for the Kd on HTRA1-1 and at MAGI2-6 were 52.3 µM and 52 µM, respectively.

As for `CC[C@H](C)[C@H](NC(=O)[C@H](CCC(N)=O)NC(=O)[C@@H](NC(=O)[C@H](Cc1c[nH]cn1)NC(=O)[C@H](CCC(N)=O)NC(=O)[C@H](CC(=O)O)NC(=O)[C@H](CCC(=O)O)NC(=O)[C@H](CC(=O)O)NC(=O)CCC(=O)NCCCOCCOCCOCCCNC(=O)CCCC[C@@H]1SC[C@@H]2NC(=O)N[C@@H]21)[C@@H](C)O)C(=O)N[C@H](C(=O)N[C@@H](CCCCN)C(=O)N[C@H](C(=O)O)C(C)C)[C@@H](C)O` [PTEN_11], the BI on SDCBP PDZ 1 is listed as -0.001; in the assay with LNX1-3, -0.02; in the assay on DLG1-3, 0.044; on MAGI3-5, 0.097; at NHERF1 PDZ 1, 0.494; at HTRA1-1 (HTRA1-1) it was 0.405. The BI at MAGI2-6 was 0.176. Also, the LogKD in the assay with LNX1-3, with DLG1-3 and on MAGI3-5 was 3.519 each time. In addition, the values for the Kd on NHERF1 PDZ 1 and on HTRA1-1 were 32.8 µM and 47.6 µM, respectively. Further, the “BI (binding intensity)” value on HTRA1-1 (HTRA1-1, holdup, singlicate) is recorded as 0.41.

For `CC[C@H](C)[C@H](NC(=O)[C@H](CCC(N)=O)NC(=O)[C@@H](NC(=O)[C@H](Cc1c[nH]cn1)NC(=O)[C@H](CCC(N)=O)NC(=O)[C@H](CC(=O)O)NC(=O)[C@H](CCC(=O)O)NC(=O)[C@H](CC(=O)O)NC(=O)CCC(=O)NCCCOCCOCCOCCCNC(=O)CCCC[C@@H]1SC[C@@H]2NC(=O)N[C@@H]21)[C@@H](C)O)C(=O)N[C@H](C(=O)N[C@@H](CCCCNC(C)=O)C(=O)N[C@H](C(=O)O)C(C)C)[C@@H](C)O` [PTEN_Ac], the BI is on record as -0.057 on SDCBP PDZ 1; 0.072 with LNX1-3; -0.088 in the assay on DLG1-3; 0.21 on MAGI3-5; 0.652 at NHERF1 PDZ 1; 0.712 at HTRA1-1 (HTRA1-1). Also, the BI at MAGI2-6 is on record as 0.469. Besides, the LogKD with LNX1-3 and with DLG1-3 was 3.605 each time. For the same compound, the Kd (usually the free concentration of one partner at which half of the binding sites on the other are occupied at equilibrium, for simple one-to-one binding) on MAGI3-5 is 102 µM; at NHERF1 PDZ 1, 13.6 µM; at HTRA1-1 it was 10.2 µM; at MAGI2-6, 29.6 µM.

The values are drawn from PMC7774954, “Interactomic affinity profiling by holdup assay: Acetylation and distal residues impact the PDZome-binding specificity of PTEN phosphatase” (PLoS ONE, 2020).
